Among the data in patent publication US10758534B2 (Vertex Pharmaceuticals Incorporated, priority 2014, dated 2020) are EC30 values, retold here.

T1 sequence (P13569 with tags, fused parts or gaps DEL508-508): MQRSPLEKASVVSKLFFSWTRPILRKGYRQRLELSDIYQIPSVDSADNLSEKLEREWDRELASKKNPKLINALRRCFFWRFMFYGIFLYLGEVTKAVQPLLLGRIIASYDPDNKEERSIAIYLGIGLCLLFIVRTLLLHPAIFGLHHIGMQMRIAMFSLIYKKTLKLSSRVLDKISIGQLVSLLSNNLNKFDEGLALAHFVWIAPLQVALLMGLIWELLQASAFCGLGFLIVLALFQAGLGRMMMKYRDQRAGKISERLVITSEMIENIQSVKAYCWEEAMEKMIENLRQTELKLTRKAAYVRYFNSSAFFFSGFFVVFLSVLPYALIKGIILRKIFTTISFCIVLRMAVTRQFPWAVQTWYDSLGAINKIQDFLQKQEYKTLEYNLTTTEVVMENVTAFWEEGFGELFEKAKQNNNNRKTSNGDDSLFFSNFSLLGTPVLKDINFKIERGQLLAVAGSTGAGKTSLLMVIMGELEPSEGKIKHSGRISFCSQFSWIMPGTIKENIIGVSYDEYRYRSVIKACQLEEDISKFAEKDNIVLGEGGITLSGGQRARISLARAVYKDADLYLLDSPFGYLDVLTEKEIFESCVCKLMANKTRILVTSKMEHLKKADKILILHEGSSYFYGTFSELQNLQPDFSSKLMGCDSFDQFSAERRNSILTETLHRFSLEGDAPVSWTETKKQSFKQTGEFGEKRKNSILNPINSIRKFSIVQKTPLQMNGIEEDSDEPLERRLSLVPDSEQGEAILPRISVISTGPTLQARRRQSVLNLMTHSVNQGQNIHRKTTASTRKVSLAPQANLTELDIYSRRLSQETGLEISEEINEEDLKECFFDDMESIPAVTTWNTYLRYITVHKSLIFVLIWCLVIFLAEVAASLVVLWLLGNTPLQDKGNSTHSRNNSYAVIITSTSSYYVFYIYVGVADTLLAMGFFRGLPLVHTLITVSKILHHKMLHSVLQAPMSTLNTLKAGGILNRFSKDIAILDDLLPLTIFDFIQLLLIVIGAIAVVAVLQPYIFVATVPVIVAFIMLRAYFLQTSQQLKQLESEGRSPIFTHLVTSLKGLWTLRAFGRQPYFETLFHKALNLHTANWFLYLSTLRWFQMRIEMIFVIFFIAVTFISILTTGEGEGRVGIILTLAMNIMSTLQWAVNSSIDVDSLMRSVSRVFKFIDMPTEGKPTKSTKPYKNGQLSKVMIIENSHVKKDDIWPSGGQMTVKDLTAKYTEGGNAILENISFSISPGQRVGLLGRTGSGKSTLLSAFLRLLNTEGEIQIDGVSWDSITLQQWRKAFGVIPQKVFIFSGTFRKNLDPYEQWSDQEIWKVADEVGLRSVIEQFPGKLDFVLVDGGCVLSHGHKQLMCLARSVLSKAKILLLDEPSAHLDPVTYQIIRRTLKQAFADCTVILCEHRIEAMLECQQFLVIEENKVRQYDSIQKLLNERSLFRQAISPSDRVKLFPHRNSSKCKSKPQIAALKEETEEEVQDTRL

The first test addresses T1, F508del (Homo sapiens, UniProt P13569, DEL508-508).
T1 construct: expressed in transfected cells
Briefly: Protocol 2: FRET membrane potential optical assay (VIPR), identification of correction compounds. The test is classed as cell-based. Particulars: F508del CFTR modulator activity; compounds of Table 1; read-out: EC30. The procedure, abridged:
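Corrector readout: membrane-potential FRET (CC2-DMPE donor, DiSBAC2(3) acceptor) on VIPR II after Cl⁻-free gluconate bath with 10 μM forskolin and 20 μM genistein. Before this, F508del-expressing NIH3T3 cells were exposed to test compound for 16 h at 37 °C without serum; 27 °C incubation served as temperature-correction control.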
Consider `CC1CN(c2ncccc2C(=O)NS(=O)(=O)c2cccc(NCCN(C)C(=O)OC(C)(C)C)n2)C(C)(C)C1` (centres unmarked) [Compound 2400, tert-butyl N-methyl-N—[2-[[6-[[2-(2,2,4-trimethylpyrrolidin-1-yl)pyridine-3-carbonyl]sulfamoyl]-2-pyridyl]amino]ethyl]carbamate], for which the 30% effect concentration (EC30) was 3 to 10 µM. Consider `C[C@@H]1CN(c2nc(C3CCCCO3)ccc2C(=O)NS(=O)(=O)c2cccnc2N)C(C)(C)C1` (stereo partly drawn) [Compound 2351, N-[(2-amino-3-pyridyl)sulfonyl]-6-tetrahydropyran-2-yl-2-[(4S)-2,2,4-trimethylpyrrolidin-1-yl]pyridine-3-carboxamide], for which the EC30 is below 3 µM. On to `CC1CN(c2ncccc2C(=O)NS(=O)(=O)c2cccc(N3CCN(c4ncccn4)CC3)n2)C(C)(C)C1` (centres unmarked) [Compound 2621, N—[[6-(4-pyrimidin-2-ylpiperazin-1-yl)-2-pyridyl]sulfonyl]-2-(2,2,4-trimethylpyrrolidin-1-yl)pyridine-3-carboxamide], for which the concentration for an effect of 30% (EC30) is 3 to 10 µM. Same read-out and setting: under `C[C@@H]1CN(c2nc(C3CCCCO3)ccc2C(=O)NS(=O)(=O)c2cccnc2N)C(C)(C)C1` (single isomer, unassigned) [Compound 2672] stands below 3 µM; under `CC1CN(c2ncccc2C(=O)NS(=O)(=O)c2cccc(OCC3CCC3)n2)C(C)(C)C1` (centres unmarked) [Compound 2188, N—[[6-(cyclobutylmethoxy)-2-pyridyl]sulfonyl]-2-(2,2,4-trimethylpyrrolidin-1-yl)pyridine-3-carboxamide], below 3 µM; under `Cc1ccc(-c2ccc(C(=O)NS(=O)(=O)c3cccnc3N)c(N3C[C@@H](C)CC3(C)C)n2)c2ccccc12` [Compound 2126, N-[(2-amino-3-pyridyl)sulfonyl]-6-(4-methyl-1-naphthyl)-2-[(4S)-2,2,4-trimethylpyrrolidin-1-yl]pyridine-3-carboxamide], below 3 µM.

In the case of `CCOCCOc1ncc(-c2ccc(C(=O)NS(=O)(=O)c3cccc(N)n3)c(N3C[C@@H](C)CC3(C)C)n2)cc1C` [Compound 2404, N-[(6-amino-2-pyridyl)sulfonyl]-6-[6-(2-ethoxyethoxy)-5-methyl-3-pyridyl]-2-[(4S)-2,2,4-trimethylpyrrolidin-1-yl]pyridine-3-carboxamide], the 30% effect concentration (EC30) is below 3 µM. As to `COc1ccc(OC)c(CNc2cccc(S(=O)(=O)NC(=O)c3cccnc3N3CC(C)CC3(C)C)n2)c1` (centres unmarked) [Compound 2722], the EC30 is below 3 µM. Still for that read-out and setting: for `CC(=O)Nc1cccc(Nc2cccc(S(=O)(=O)NC(=O)c3cccnc3N3CC(C)CC3(C)C)n2)c1` (centres unmarked) [Compound 2387, N—[[6-(3-acetamidoanilino)-2-pyridyl]sulfonyl]-2-(2,2,4-trimethylpyrrolidin-1-yl)pyridine-3-carboxamide] the value was 3 to 10 µM; for `CC(C)COc1cc(F)cc(-c2ccc(C(=O)NS(=O)(=O)c3cccnc3)c(N3C[C@@H](C)CC3(C)C)n2)c1` [Compound 2377, 6-(3-fluoro-5-isobutoxy-phenyl)-N-(3-pyridylsulfonyl)-2-[(4S)-2,2,4-trimethylpyrrolidin-1-yl]pyridine-3-carboxamide], below 3 µM. The same measure, in the same setting: for `CC1CN(c2ncccc2C(=O)NS(=O)(=O)c2cccc(Nc3cccc(N(C)C)c3)n2)C(C)(C)C1` (centres unmarked) [Compound 2517, N—[[6-[3-(dimethylamino)anilino]-2-pyridyl]sulfonyl]-2-(2,2,4-trimethylpyrrolidin-1-yl)pyridine-3-carboxamide] the value was below 3 µM.

The same test, now with this note: Table 3; compounds of Table 1 as modulators of CFTR activity; protocol not stated.
On to `Cc1cc(C)c(Oc2nc(-c3cc(F)cc(OCC(C)C)c3)ccc2C(=O)NS(=O)(=O)c2cccc(C(=O)O)n2)c(C)c1` [Compound 461, 6-[[6-(3-fluoro-5-isobutoxy-phenyl)-2-(2,4,6-trimethylphenoxy)pyridine-3-carbonyl]sulfamoyl]pyridine-2-carboxylic acid], for which the 30% effect concentration (EC30) result was “++ (“++” means between 3 uM and 10 uM)”.

For `Cc1cc(C)c(CN2Cc3ccccc3C2C(=O)NS(=O)(=O)c2ccccc2N)c(C)c1` (centres unmarked) [Compound 230, N-(2-aminophenyl)sulfonyl-2-[(2,4,6-trimethylphenyl)methyl]isoindoline-1-carboxamide], the concentration for an effect of 30% (EC30) entry was “++ (“++” means between 3 uM and 10 uM)”. Turning to `CC1CCN(c2nc(-c3ccc(OC(C)C)nc3)ccc2C(=O)NS(=O)(=O)c2ccn[nH]2)CC1` [Compound 534, 6-(6-isopropoxy-3-pyridyl)-2-(4-methyl-1-piperidyl)-N-(1H-pyrazol-5-ylsulfonyl)pyridine-3-carboxamide], the concentration for an effect of 30% (EC30) result was “++ (“++” means between 3 uM and 10 uM)”. As for `Cc1cc(C)c(Cn2nc(C(C)(C)C)cc2C(=O)NS(=O)(=O)c2ccc(O)cc2)c(C)c1` [Compound 269, 5-tert-butyl-N-(4-hydroxyphenyl)sulfonyl-2-[(2,4,6-trimethylphenyl)methyl]pyrazole-3-carboxamide], the EC30 entry was “+++ (“+++” means <3 uM)”.

As to `Cc1cc(C)c(Cn2nc(C(C)(C)C)cc2C(=O)NS(=O)(=O)c2cccc(Cl)c2)c(C)c1` [Compound 472, 5-tert-butyl-N-(3-chlorophenyl)sulfonyl-2-[(2,4,6-trimethylphenyl)methyl]pyrazole-3-carboxamide], the EC30 entry is reported as “+ (“+” means greater than 10 uM)”. `COC(=O)C(C)Oc1ccc(-c2ccc(C(=O)NS(=O)(=O)c3cccc(N)n3)c(N3[C@H](C)CC[C@@H]3C)n2)cn1` (stereo partly drawn) [Compound 723, methyl 2-[[5-[5-[(6-amino-2-pyridyl)sulfonylcarbamoyl]-6-[(2S,5R)-2,5-dimethylpyrrolidin-1-yl]-2-pyridyl]-2-pyridyl]oxy]propanoate]: the 30% effect concentration (EC30) result is “++ (“++” means between 3 uM and 10 uM)”. As for `Cc1cc(C)c(Oc2nc(-c3ccccc3)ccc2C(=O)NS(=O)(=O)c2cccc(NCCO)n2)c(C)c1` [Compound 595, N-[[6-(2-hydroxyethylamino)-2-pyridyl]sulfonyl]-6-phenyl-2-(2,4,6-trimethylphenoxy)pyridine-3-carboxamide], the EC30 entry is given as “+++ (“+++” means <3 uM)”. Take `Cc1ccc(-c2nc3c(cc2C(=O)NS(=O)(=O)c2cccc(N)n2)CCCC3(C)C)cc1` [Compound 444, N-[(6-amino-2-pyridyl)sulfonyl]-8,8-dimethyl-2-(p-tolyl)-6,7-dihydro-5H-quinoline-3-carboxamide]: the EC30 result is “++ (“++” means between 3 uM and 10 uM)”.

Turning to `Cc1cc(C)c(Oc2nc(C(C)(C)C)ccc2C(=O)NS(=N)(=O)c2cccc(N)c2)c(C)c1` (single isomer, unassigned) [Compound 19, N-[(3-aminophenyl)sulfonimidoyl]-6-tert-butyl-2-(2,4,6-trimethylphenoxy)pyridine-3-carboxamide], the 30% effect concentration (EC30) entry is listed as “+++ (“+++” means <3 uM)”. Consider `CC(C)COc1ccc(F)c(-c2ccc(C(=O)NS(=O)(=O)c3ccc[nH]c3=O)c(N3[C@H](C)CC[C@@H]3C)n2)c1` [Compound 721, 2-[(2S,5R)-2,5-dimethylpyrrolidin-1-yl]-6-(2-fluoro-5-isobutoxy-phenyl)-N-[(2-oxo-1H-pyridin-3-yl)sulfonyl]pyridine-3-carboxamide], for which the EC30 entry was “++ (“++” means between 3 uM and 10 uM)”. The same measure, in the same setting: for `CC(C)(C)c1cc(C(=O)NS(=O)(=O)c2cccc(N)c2)n(Cc2c(Cl)cc(Cl)cc2Cl)n1` [Compound 303, N-(3-aminophenyl)sulfonyl-5-tert-butyl-2-[(2,4,6-trichlorophenyl)methyl]pyrazole-3-carboxamide] the value was “+++ (“+++” means <3 uM)”. Take `Cc1ccc(Oc2nc(-c3cnn(CC(C)C)c3)ccc2C(=O)NS(=O)(=O)c2nccnc2N)c(C)c1` [Compound 713, N-(3-aminopyrazin-2-yl)sulfonyl-2-(2,4-dimethylphenoxy)-6-(1-isobutylpyrazol-4-yl)pyridine-3-carboxamide]: the EC30 entry is “++ (“++” means between 3 uM and 10 uM)”. Same read-out and setting: under `COc1ncccc1-c1cc(C(=O)NS(=O)(=O)c2cccc(N)c2)n(Cc2c(C)cc(C)cc2C)n1` [Compound 122, N-(3-aminophenyl)sulfonyl-5-(2-methoxy-3-pyridyl)-2-[(2,4,6-trimethylphenyl)methyl]pyrazole-3-carboxamide] stands “++ (“++” means between 3 uM and 10 uM)”; under `CCCC1CCCN(c2nc(-c3ccc(OC(C)C)nc3)ccc2C(=O)NS(=O)(=O)c2cccc(N)n2)C1` (centres unmarked) [Compound 522, N-[(6-amino-2-pyridyl)sulfonyl]-6-(6-isopropoxy-3-pyridyl)-2-(3-propyl-1-piperidyl)pyridine-3-carboxamide], “+++ (“+++” means <3 uM)”; under `Cc1cc(C)c(Cn2nc(C(C)(C)C)cc2C(=O)NS(=O)(=O)c2cccc3c2ccn3CCO)c(C)c1` [Compound 188, 5-tert-butyl-N-[1-(2-hydroxyethyl)indol-4-yl]sulfonyl-2-[(2,4,6-trimethylphenyl)methyl]pyrazole-3-carboxamide], “+++ (“+++” means <3 uM)”. Consider `Cc1cc(C)c(CN2CCCc3ccccc3C2C(=O)NS(=O)(=O)c2ccccc2)c(C)c1` (centres unmarked) [Compound 674, N-(benzenesulfonyl)-2-[(2,4,6-trimethylphenyl)methyl]-1,3,4,5-tetrahydro-2-benzazepine-1-carboxamide], for which the 30% effect concentration (EC30) entry is “+++ (“+++” means <3 uM)”.

As for `COc1cccnc1S(=O)(=O)NC(=O)c1cc(C(C)(C)C)nn1Cc1c(C)cc(C)cc1C` [Compound 44, 5-tert-butyl-N-[(3-methoxy-2-pyridyl)sulfonyl]-2-[(2,4,6-trimethylphenyl)methyl]pyrazole-3-carboxamide], the EC30 result is “++ (“++” means between 3 uM and 10 uM)”.

Consider `Cc1cc(C)c(Cc2nn(C(C)(C)C)cc2C(=O)NS(=O)(=O)c2cccc(N)c2)c(C)c1` [Compound 324, N-(3-aminophenyl) sulfonyl-1-tert-butyl-3-[(2,4,6-trimethylphenyl)methyl]pyrazole-4-carboxamide], for which the EC30 result is “++ (“++” means between 3 uM and 10 uM)”.
